These results are taken from patent publication US11576922B2, “CD73 inhibitors” (ORIC Pharmaceuticals, Inc., priority 2017, dated 2023).

For the experiment, the target named is T1, CD73 (Homo sapiens, UniProt P21589).
T1 sequence (P21589 27-549): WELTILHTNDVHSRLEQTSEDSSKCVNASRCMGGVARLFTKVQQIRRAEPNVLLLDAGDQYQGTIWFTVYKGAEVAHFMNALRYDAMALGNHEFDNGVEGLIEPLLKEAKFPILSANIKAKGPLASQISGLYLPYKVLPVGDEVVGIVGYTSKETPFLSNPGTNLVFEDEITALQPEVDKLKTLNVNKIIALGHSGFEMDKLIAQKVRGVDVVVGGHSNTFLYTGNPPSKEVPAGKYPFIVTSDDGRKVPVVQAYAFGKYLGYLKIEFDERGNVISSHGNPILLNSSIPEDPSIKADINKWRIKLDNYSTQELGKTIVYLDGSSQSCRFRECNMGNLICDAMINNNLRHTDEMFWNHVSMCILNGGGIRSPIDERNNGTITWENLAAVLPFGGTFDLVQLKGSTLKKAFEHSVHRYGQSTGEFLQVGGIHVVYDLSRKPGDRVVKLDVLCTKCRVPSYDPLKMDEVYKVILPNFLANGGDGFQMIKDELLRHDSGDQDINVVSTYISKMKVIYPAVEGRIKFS
The experiment can be described thus: Example A1: Biochemical Assay (CD73 inhibition, Malachite Green detection of AMP hydrolysis). The conditions noted are these: AMP 15 μM, Tris-HCl pH 7.4, Malachite Green, absorbance 620 nm. The procedure:
Example A1: Biochemical Assay
Assay Reaction Conditions
• Assay Volume: 70 μl • Reaction Volume: 50 μl • CD73: 0.3208 nM • AMP: 15 μM • Assay Buffer: 2 5 mM Tris-HCL, pH 7.4, 0.01% Brij-35, 0.01% BSA, 5 mM MgCl2 Assay Procedure:
Made dose titration of testing compounds in assay buffer, 10 points ½ log titrations in duplicates starting at 100 μM.
Added 25 μl of CD73 to each well for a final concentration of […].
Incubated at RT for 15 min.
Added 25 μl of AMP to each well for a final concentration of 15 μM.
Incubated at RT for 10 min.
Added 10 μl of Malachite Green Reagent A, incubate at RT for 10 min.
Added 10 μl of Malachite Green Reagent B, incubate at RT for 45 min.
Read the Absorbance on Envision plate reader using excitation filter: Cy5 […].
The ability of the compounds disclosed herein to inhibit CD73 activity was quantified and the respective IC50 values were determined. Table 1 provides the biochemical IC50 values of compounds disclosed herein.

Setting [1] is: CD73 0.3208 nM, read-out: Biochemical IC50.

A word on the IC50: it is the concentration needed to halve the response being measured.

Like-named read-outs stand apart in the source and are kept apart here. A value given as a limit tells only on which side of the number the result lay.

For `C[C@H](Nc1nc(Cl)nc2c1nnn2[C@@H]1O[C@H](COP(=O)(O)CP(=O)(O)O)[C@@H](O)[C@H]1O)c1ccccc1` [Example 8, (((((2R,3S,4R,5R)-5-(5-chloro-7-(((S)-1-phenylethyl)amino)-3H-[1,2,3]triazolo[4,5-d]pyrimidin-3-yl)-3,4-dihydroxytetrahydrofuran-2-yl)methoxy)(hydroxy)phosphoryl)methyl) phosphonic acid], under setting [1], the IC50 is below 0.1 µM.

For the compound `O=P(O)(O)CP(=O)(O)OC[C@H]1O[C@@H](n2nnc3c(NCc4ccccc4Cl)nc(Cl)nc32)[C@H](O)[C@@H]1O` [Example 6, (((((2R,3S,4R,5R)-5-(5-chloro-7-((2-chlorobenzyl)amino)-3H-[1,2,3]triazolo[4,5-d]pyrimidin-3-yl)-3,4-dihydroxytetrahydrofuran-2-yl)methoxy)(hydroxy)phosphoryl)methyl) phosphonic acid], the half-maximal inhibitory concentration (IC50) under setting [1] is below 0.1 µM.

As for `Cc1nn([C@@H]2O[C@H](COP(=O)(O)CP(=O)(O)O)[C@@H](O)[C@H]2O)c2nc(Cl)nc(N(C)Cc3ccccc3)c12` [Example 43, (((((2R,3S,4R,5R)-5-(4-(benzyl(methyl)amino)-6-chloro-3-methyl-1H-pyrazolo[3,4-d]pyrimidin-1-yl)-3,4-dihydroxytetrahydrofuran-2-yl)methoxy)(hydroxy)phosphoryl)methyl) phosphonic acid], the IC50 under setting [1] is below 0.1 µM.

For `CN(Cc1ccccc1Cl)c1nc(Cl)nc2c1nnn2[C@@H]1C[C@H](COP(=O)(O)CP(=O)(O)O)[C@@H](O)[C@H]1O` [Example 21, (((((1R,2R,3S,4R)-4-(5-chloro-7-((2-chlorobenzyl)(methyl)amino)-3H-[1,2,3]triazolo[4,5-d]pyrimidin-3-yl)-2,3-dihydroxycyclopentyl)methoxy)(hydroxy)phosphoryl)methyl)phosphonic acid], the IC50 under setting [1] is below 0.1 µM.

Take `C[C@@H](c1ccccc1Cl)N(C)c1nc(Cl)nc2c1nnn2[C@@H]1O[C@H](COP(=O)(O)CP(=O)(O)O)[C@@H](O)[C@H]1O` [Example 12, (((((2R,3S,4R,5R)-5-(5-chloro-7-(((S)-1-(2-chlorophenyl)ethyl)(methyl)amino)-3H-[1,2,3]triazolo[4,5-d]pyrimidin-3-yl)-3,4-dihydroxytetrahydrofuran-2-yl)methoxy)(hydroxy)phosphoryl)methyl) phosphonic acid]: the IC50 under setting [1] is below 0.1 µM.

Regarding `C[C@H](Nc1nc(Cl)nc2c1nnn2[C@@H]1O[C@H](COP(=O)(O)CP(=O)(O)O)[C@@H](O)[C@H]1O)c1ccccc1Cl` [Example 9, (((((2R,3S,4R,5R)-5-(5-chloro-7-(((S)-1-(2-chlorophenyl)ethyl)amino)-3H-[1,2,3]triazolo[4,5-d]pyrimidin-3-yl)-3,4-dihydroxytetrahydrofuran-2-yl)methoxy)(hydroxy)phosphoryl)methyl) phosphonic acid], the IC50 under setting [1] was below 0.1 µM.

In the case of `C[C@H](Nc1nc(Cl)nc2c1cnn2[C@@H]1O[C@H](COP(=O)(O)CP(=O)(O)O)[C@@H](O)[C@H]1O)c1ccccc1Cl` [Example 46, (((((2R,3S,4R,5R)-5-(6-chloro-4-(((S)-1-(2-chlorophenyl)ethyl)amino)-1H-pyrazolo[3,4-d]pyrimidin-1-yl)-3,4-dihydroxytetrahydrofuran-2-yl)methoxy)(hydroxy)phosphoryl)methyl) phosphonic acid], the IC50 under setting [1] is above 1 µM.

As to `O=P(O)(O)CP(=O)(O)OC[C@H]1O[C@@H](n2ncc3c(NCc4ccccc4Cl)nc(Cl)nc32)C[C@@H]1O` [Example 41, (((((2R,3S,5R)-5-(6-chloro-4-((2-chlorobenzyl)amino)-1H-pyrazolo[3,4-d]pyrimidin-1-yl)-3-hydroxytetrahydrofuran-2-yl)methoxy)(hydroxy)phosphoryl)methyl) phosphonic acid], the IC50 under setting [1] lay in the range of 0.1 to 1 µM.

As for `CN(c1nc(Cl)nc2c1nnn2[C@@H]1O[C@H](COP(=O)(O)CP(=O)(O)O)[C@@H](O)[C@H]1O)[C@@H]1CCc2ccccc21` [Example 19, (((((2R,3S,4R,5R)-5-(5-chloro-7-(((R)-2,3-dihydro-1H-inden-1-yl)(methyl)amino)-3H-[1,2,3]triazolo[4,5-d]pyrimidin-3-yl)-3,4-dihydroxytetrahydrofuran-2-yl)methoxy)(hydroxy)phosphoryl)methyl) phosphonic acid], the half-maximal inhibitory concentration (IC50) under setting [1] was below 0.1 µM.

As to `O=P(O)(O)CP(=O)(O)OC[C@H]1O[C@@H](n2nnc3c(NCc4ccc(Cl)cc4)nc(Cl)nc32)[C@H](O)[C@@H]1O` [Example 7, (((((2R,3S,4R,5R)-5-(5-chloro-7-((4-chlorobenzyl)amino)-3H-[1,2,3]triazolo[4,5-d]pyrimidin-3-yl)-3,4-dihydroxytetrahydrofuran-2-yl)methoxy)(hydroxy)phosphoryl)methyl) phosphonic acid], under setting [1], the IC50 was below 0.1 µM.

On to `CO[P@@](=O)(CP(=O)(O)O)OC[C@H]1O[C@@H](n2nnc3c(NCc4ccccc4Cl)nc(Cl)nc32)[C@H](O)[C@@H]1O` [Example 28, (((S)-(((2R,3S,4R,5R)-5-(5-chloro-7-((2-chlorobenzyl)amino)-3H-[1,2,3]triazolo[4,5-d]pyrimidin-3-yl)-3,4-dihydroxytetrahydrofuran-2-yl)methoxy)(methoxy)phosphoryl)methyl)phosphonic acid], for which the IC50 under setting [1] was in the range of 0.1 to 1 µM.

With `O=P(O)(O)CP(=O)(O)OC[C@@H]1C[C@@H](O)[C@H](n2nnc3c(NCc4ccccc4Cl)nc(Cl)nc32)O1` [Example 23, (((((2S,4R,5R)-5-(5-chloro-7-((2-chlorobenzyl)amino)-3H-[1,2,3]triazolo[4,5-d]pyrimidin-3-yl)-4-hydroxytetrahydrofuran-2-yl)methoxy)(hydroxy)phosphoryl)methyl)phosphonic acid], the half-inhibitory concentration (IC50) under setting [1] is below 0.1 µM.

For `COP(=O)(CP(=O)(O)O)OC[C@H]1OC(n2nnc3c(NC4CCc5ccccc54)nc(Cl)nc32)[C@H](O)[C@@H]1O` (stereo partly drawn) [Example 34, (((((2R,3S,4R,5S)-5-(5-chloro-7-(((S)-2,3-dihydro-1H-inden-1-yl)amino)-3H-[1,2,3]triazolo[4,5-d]pyrimidin-3-yl)-3,4-dihydroxytetrahydrofuran-2-yl)methoxy)(methoxy)phosphoryl)methyl) phosphonic acid], under setting [1], the IC50 is 0.1 to 1 µM.

For the compound `Cc1nn([C@@H]2O[C@H](COP(=O)(O)CP(=O)(O)O)[C@@H](O)[C@H]2O)c2nc(Cl)nc(NCc3ccccc3Cl)c12` [Example 44, (((((2R,3S,4R,5R)-5-(6-chloro-4-((2-chlorobenzyl)amino)-3-methyl-1H-pyrazolo[3,4-d]pyrimidin-1-yl)-3,4-dihydroxytetrahydrofuran-2-yl)methoxy)(hydroxy)phosphoryl)methyl) phosphonic acid], the IC50 under setting [1] was below 0.1 µM.

As for `COP(=O)(CP(=O)(O)O)OC[C@H]1O[C@@H](n2ncc3c(NCc4ccccc4Cl)nc(Cl)nc32)[C@H](O)[C@@H]1O` (stereo partly drawn) [Example 49, (((((2R,3S,4R,5R)-5-(6-chloro-4-((2-chlorobenzyl)amino)-1H-pyrazolo[3,4-d]pyrimidin-1-yl)-3,4-dihydroxytetrahydrofuran-2-yl)methoxy)(methoxy)phosphoryl)methyl) phosphonic acid], under setting [1], the IC50 is below 0.1 µM.

In the case of `O=P(O)(O)CP(=O)(O)OC[C@H]1O[C@@H](n2nnc3c(NCc4ccccc4)nc(Cl)nc32)[C@H](O)[C@@H]1O` [Example 1, (((((2R,3S,4R,5R)-5-(7-(Benzylamino)-5-chloro-3H-[1,2,3]triazolo[4,5-d]pyrimidin-3-yl)-3,4-dihydroxytetrahydrofuran-2-yl)methoxy)(hydroxy)phosphoryl)methyl)phosphonic acid], the half-maximal inhibitory concentration (IC50) under setting [1] was 0.1 to 1 µM.

With `C[C@@H](Nc1nc(Cl)nc2c1cnn2[C@@H]1O[C@H](COP(=O)(O)CP(=O)(O)O)[C@@H](O)[C@H]1O)c1ccccc1Cl` [Example 45, (((((2R,3S,4R,5R)-5-(6-chloro-4-(((R)-1-(2-chlorophenyl)ethyl)amino)-1H-pyrazolo[3,4-d]pyrimidin-1-yl)-3,4-dihydroxytetrahydrofuran-2-yl)methoxy)(hydroxy)phosphoryl)methyl) phosphonic acid], the IC50 under setting [1] lay in the range of 0.1 to 1 µM.

In the case of `O=P(O)(O)C[P@@](=O)(OC[C@H]1O[C@@H](n2nnc3c(NCc4ccccc4Cl)nc(Cl)nc32)[C@H](O)[C@@H]1O)Oc1ccccc1` [Example 33, (((R)-(((2R,3S,4R,5R)-5-(5-chloro-7-((2-chlorobenzyl)amino)-3H-[1,2,3]triazolo[4,5-d]pyrimidin-3-yl)-3,4-dihydroxytetrahydrofuran-2-yl)methoxy)(phenoxy)phosphoryl)methyl) phosphonic acid], the IC50 (Biochemical IC50, CD73 0.3208 nM) was in the range of 0.1 to 1 µM.
